Test results taken from patent US20150267174A1, “REPROGRAMMING PEPTIDE AND USE THEREOF” (priority 2012, published 2015).
Square brackets hold non-standard residues; d marks the D form. Cysamide = C-terminal cysteamide

Key:
Format in all cases: cell-based
[1] = tested on: Human adult fibroblast strain TIG113; test: Spheroid formation after reverse transfection of peptide into fibroblasts; settings: for spheroid formation ability (in words): reverse transfection, TIG113; for degree of spheroid formation: number of ES cell colony-like spheroids, peptide 30 μg/well solid-phased on 12 well plate, 2×10^4 cells seeded, measured 7-10 days later
Procedure: Human adult fibroblast strain TIG113 was cultured in a medium mainly containing 10% fetal bovine serum-containing EMEM under humidified conditions at 37° C. and 5% CO2 until it reached 1×10^7 cells. A plate for reverse transfection was prepared by applying each peptide shown in Table 1 to each well of a 12 well plate at a concentration of 30 μg/well, and forming a solid phase by air-drying. Grown TIG113 was washed with CMF-PBS, and incubated in 0.25% trypsin solution at 37° C. for 10-15 min to dissociate the cells. Centrifugation and washing with PBS were repeated twice and the cells were suspended in iPS medium (manufactured by ReproCELL Incorporated). Using the cell suspension, human fibroblast was seeded at 2×10^4 cells on a plate for reverse transfection. As a reverse transfection medium, an iPS medium containing 10% fetal bovine serum and not containing bFGF was used. The number of ES colony-like spheroids formed was measured 7-10 days later, and the spheroid formation degree was evaluated (Table 1). In an experiment using the peptides of H11, H16, and H29, the ratio of the cells forming spheroid was calculated.

[2] = tested on: Human adult fibroblast strain TIG113; test: Marker expression (immunostaining, alkaline phosphatase staining) of spheroid cells
Procedure: The pluripotent spheroid cell obtained in Example 1, by introducing a reprogramming peptide into differentiated cell, was examined for undifferentiation, expression of nerve marker and the like.
Using the H11 peptide shown in Table 1, the cells were made to form spheroid according to the method shown in Example 1, and incubated in 1% H2O2 containingmethanol at room temperature for 5 min to immobilize the cells. The cells were washed five times with PBS, and blocked with PBS containing 5% FBS/0.05% gelatin/3% skim milk/1% BSA (hereinafter Block Ace) at room temperature for 1-2 hr. Furthermore, the cells were reacted at room temperature for 2 hr with the primary antibody shown in Table 2 and appropriately diluted with Block Ace. The cells were washed five times with PBS, and the HPR-labeled secondary antibody was appropriately diluted with Block Ace and reacted at room temperature for 1 hr. Lastly, the cells were washed five times with PBS, and the antigen was visualized according to the protocol of Peroxidase Stain DAB Kit &enhancer (Nacalai Tesque).
For alkaline phosphatase staining, the cells immobilized by the aforementioned method were incubated at room temperature for 30 min using BCIP/NBT Color Development Substrate (Promega). The reaction was quenched by washing five times with PBS.

[3] = tested on: human fibroblast (manufactured by KURABO INDUSTRIES LTD.); test: Spheroid formation and marker expression using human adult fibroblast
Description: Using a method similar to that of Example 1, H11 peptide was introduced into human fibroblast (manufactured by KURABO INDUSTRIES LTD.).
The prepared spheroid was subjected to expression analysis of pluripotency marker and differentiation marker according to the method of Example 2. As a result, it was positive to pluripotency markers of alkaline phosphatase, SSEA-3, TRA-1-61, Oct3/4, Sox2, and Nanog. Furthermore, the expression of neural stem cell marker nestin, nerve marker neurofilament 160, βIII tubulin, MAP2, and GFAP was confirmed by continuous culture. Furthermore, the expression of insulin producing cell marker proinsulin, and C-peptide was also confirmed.

A549 = test: Spheroid formation and marker staining in various cells
Description: (§1) By a method similar to that of Example 1, H11 peptide was introduced into BHK21, A549, H293 cell, mouse feeder cell (COSMO BIO co., ltd.: RCHEFC003), bovine vascular endothelial cell (TOYOBO CO., LTD.: CAB300K05), and swine vascular endothelial cell (TOYOBO CO., LTD.: CAP300K05).

BHK21 = test: as above
Description: as §1

H293 cell = test: as above
Description: as §1

[4] = tested on: bovine vascular endothelial cell; test: as above
Description: as §1

mouse feeder cell = test: as above
Description: as §1

[5] = tested on: swine vascular endothelial cell; test: as above
Description: as §1

[6] = tested on: Human adult fibroblast strain TIG113; test: CD105/CD146/CD31 antibody staining of spheroid cells
Procedure: The pluripotent spheroid cell obtained in Example 1 by introducing a reprogramming peptide into a differentiated cell was examined for undifferentiation, and expressions of nerve marker and the like.
Using the H11 peptide shown in Table 1, the cells were made to form spheroid according to the method shown in Example 1 and incubated using 1% H2O2-containing methanol at room temperature for 5 min, and immobilized.
Using the antibody described in Table 3, cells were stained according to a package insert. As the secondary antibody, HRP-labeled goat anti-mouse IgG antibody (manufactured by Promega KK, Goat Anti-Mouse IgG (H+L), HRP Conjugate) was used.

Substance: Ac-GALFLGFLGAAGSTMGA-Cysamide [H13]
- spheroid formation ability (in words) [1]: no spheroid formation ability

Substance: Ac-GALFLGFLGAAGSTMGA/WSQ/KKRTLRKNDRKKR-Cysamide (Ac-GALFLGFLGAAGSTMGAWSQKKRTLRKNDRKKR-Cysamide) [H36]
- degree of spheroid formation [1]: +++ (+++ about 50-100)

Substance: Ac-GALFLGFLGAAGSTMGA/WSQ/RSRKYTSWYVALKR-Cysamide (Ac-GALFLGFLGAAGSTMGAWSQRSRKYTSWYVALKR-Cysamide) [H37]
- degree of spheroid formation [1]: +++ (+++ about 50-100)

Substance: Ac-GALFLGFLGAAGSTMGAWSQGKKRSKA-Cysamide [H29]
- degree of spheroid formation [1]: +++ (+++ about 50-100)
- spheroid formation ability (in words) [1]: has spheroid formation ability

Substance: Ac-GALFLGFLGAAGSTMGAWSQPKKKRKV-Cysamide [H11]
- degree of spheroid formation [1]: +++ (+++ about 50-100)
- expression of pluripotent markers alkaline phosphatase, Oct3/4, Sox2, Nanog, SSEA-3, Tra-1-81 ([2]; spheroid cells from TIG113): express
- expression of proinsulin and C-peptide (insulin producing cell markers) ([2]; spheroid cells from TIG113): confirmed
- expression of nestin, neurofilament 160, βIII tubulin, MAP2, GFAP ([2]; when the culture period becomes long): confirmed
- expression of alpha-fetoprotein and albumin [3]: confirmed
- expression of proinsulin and C-peptide [3]: confirmed
- oil red O staining [3]: differentiation into adipose tissue was found
- expression of nestin, neurofilament 160, βIII tubulin, MAP2, GFAP ([3]; continuous culture): confirmed
- spheroid formation ([3]; human fibroblast (KURABO)): finally formed spheroid
- pluripotency markers alkaline phosphatase, SSEA-3, TRA-1-61, Oct3/4, Sox2, Nanog ([3]; prepared spheroid): positive
- alkaline phosphatase, SSEA-3 staining (A549): positive
- spheroid formation (A549): formed spheroids
- alkaline phosphatase, SSEA-3 staining (BHK21): positive
- spheroid formation (BHK21): formed spheroids
- alkaline phosphatase, SSEA-3 staining (H293 cell): positive
- spheroid formation (H293 cell): formed spheroids
- alkaline phosphatase, SSEA-3 staining [4]: positive
- spheroid formation [4]: formed spheroids
- alkaline phosphatase, SSEA-3 staining (mouse feeder cell): positive
- spheroid formation (mouse feeder cell): formed spheroids
- alkaline phosphatase, SSEA-3 staining [5]: positive
- spheroid formation [5]: formed spheroids
- mesenchymal stem cell marker CD105 [6]: positive
- pericyte marker CD146 [6]: positive
- vascular endothelial cell marker CD31 [6]: negative

Substance: Ac-GALFLGFLGAAGSTMGAWSQPKSKRKV-Cysamide [H6]
- degree of spheroid formation [1]: + (+ about −10)

Substance: Ac-GALFLGFLGAAGSTMGAmSQPKSKRKV-Cysamide (Ac-GALFLGFLGAAGSTMGA[dM]SQPKSKRKV-Cysamide) [H10]
- degree of spheroid formation [1]: + (+ about −10)

Substance: Ac-PKKKRKV-Cysamide [H18, SV40 Large T antigen NLS]
- spheroid formation ability (in words) [1]: Spheroid is not formed

Substance: Ac-RQIKIWFQNRRMKWKKWSQGKKRSKA-Cysamide [H31]
- degree of spheroid formation [1]: + (+ about −10)

Substance: GALFLGFLGAAGSTMGAWSQPKSKRKV (Reprogramming peptide) [H1]
- degree of spheroid formation [1]: ++ (++ about 10-50)

Substance: GALFLGFLGAAGSTMGAmSQPKSKRKV (GALFLGFLGAAGSTMGAMSQPKSKRKV; not fully specified; D-Met; Reprogramming peptide) [H5]
- degree of spheroid formation [1]: + (+ about −10)
